Read-outs that look alike come from different tables or passages of the source.

Assay [1] relates to acute inflammatory response (carrageenan paw edema). In words: Rat carrageenan paw edema assay. The class given is in vivo. The note with it: po; for inhibition in vivo at 50 mg/kg: 50 mg/kg peroral, 1 hour prior to carrageenan, edema at 3 hours. As to the method:
The compounds of the invention are tested in the rat carrageenan paw edema assay to determine their ability to inhibit the acute inflammatory response. 140-180 gm male Sprague-Dawley rats, in groups of 6 animals, are injected subcutaneously in the right paw with 0.1 ml of 1% carrageenan at zero time. Mercury plethysmographic readings (ml) of the paw are made at zero time and 3 hours later. Test compounds are suspended or dissolved in 0.5% methylcellulose and given perorally 1 hour prior to carrageenan administration. The increase in paw volume (edema in ml.) produced by the carrageenan is measured. […] Unpaired Student's t-test is used to determine statistical significance.
(In general: In the carrageenan paw model, swelling and tenderness develop within hours.)

The subject of assay [2] is LTD4 induced bronchoconstriction. Put plainly: In vivo inhibition of LTD4 induced bronchospasm in guinea pigs (exogenously administered leukotrienes). Conditions: Cavia porcellus, 10 minutes before induction of bronchospasm (LTD4). Further details: species or system guinea pig.
Assay [3] deals with T1, LTD4 (contraction of isolated guinea pig trachea) (Cavia porcellus, UniProt Q2NNR5).
T1 construct: from tissue; host or cells: isolated tracheal rings of male Hartley guinea pigs
T1 sequence (Q2NNR5 1-340): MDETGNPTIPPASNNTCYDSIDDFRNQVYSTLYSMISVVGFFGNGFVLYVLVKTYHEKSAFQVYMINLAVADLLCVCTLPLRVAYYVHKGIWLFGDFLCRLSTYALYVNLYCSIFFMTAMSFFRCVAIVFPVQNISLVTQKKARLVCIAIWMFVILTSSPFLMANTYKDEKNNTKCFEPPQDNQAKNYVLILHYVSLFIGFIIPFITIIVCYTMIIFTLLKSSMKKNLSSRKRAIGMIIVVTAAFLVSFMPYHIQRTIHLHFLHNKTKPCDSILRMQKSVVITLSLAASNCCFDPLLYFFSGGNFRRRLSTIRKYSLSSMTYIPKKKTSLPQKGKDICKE
In words: Isolated guinea pig trachea assay, LTD4 antagonist activity. The class given is cell-based. The note with it: read-out: pKB ± S.E. (converted). How it is done: The compounds of the invention are tested in the isolated guinea pig trachea assay to assess their LTD4 antagonist activity. Male Hartley guinea pigs (350-400 g) are euthanized by a blow to the head, the neck is opened and the trachea removed. The trachea is maintained in aerated physiological salt solution, cleared of connective tissue and fat and cut into rings approximately 2 mm in width (usually containing two cartilaginous segments per ring). Two pieces of silk suture are then passed through the lumen of the tracheal ring and are tied around the cartilage, one on each side of the trachealis muscle. The tracheal ring is suspended between a glass hook and a force displacement transducer in a 10 ml organ bath for measurement of isometric tension. Tissues are maintained at 37° C. in aerated (95% O2 /5% CO2) physiological salt solution of the following composition: […] The tracheal rings are maintained at 2 g resting tension and equilibrated for 45 minutes (with frequent washing and readjustment of resting tension). The tracheal rings are first contracted by the addition of carbachol (3×10^-6 M), to determine tissue responsiveness and establish a reference contraction. On attainment of a stable level of contraction (approximately 30 minutes), the tissues are washed several times until baseline tension has been restored and then re-equilibrated for 30 minutes. The tissues are then incubated for 45 minutes with a test antagonist (either 1×10^-6 M or 1×10^-5 M) or 10 μl of an appropriate solvent control (control, non-treated). One tissue in each group serves as the control. Twenty minutes prior to the construction of the LTD4 cumulative concentration-response curve, L-[…]×10^-2 M final bath concentration) is added to inhibit bioconversion of LTD4 to LTE4. Only one LTD4 concentration-response curve is constructed in each tissue. All responses to LTD4 are calculated as a percentage of the reference contraction to carbachol. LTD4 antagonist activity is determined by comparison of the concentration response curves of LTD4 in the presence and absence of antagonist. Assessment of the relative rightward shift of the antagonist treated curve relative to the solvent (control) treated tissue is calculated as a concentration ratio (Eq. A) and used in subsequent calculations to derive an antagonist pKB value (Eqs B&C). In the event that the maximum response to LTD4 is depressed, the EC50 for that particular curve is determined, an "apparent" pKB reported, and the compound reported as "not-competitive."

The test system of assay [4] is TxB2 synthesis (cyclooxygenase). In words: Inhibition of synthesis of cyclooxygenase oxidation product TxB2 (rat polymorphonuclear leukocytes). Format: cell-based. The note with it: Leukocyte, 10 μM, rat PMN. How it is done:
(§1) Peritoneal PMN are obtained from female Wistar rats (150-250 g) that received an i.p. injection of 6% glycogen (10 ml). After 24 hours, rats are killed by CO2 asphyxiation and peritoneal cells are harvested by peritoneal lavage using Ca^++ and Mg^++ free Hanks' balanced salt solution (HBSS). The peritoneal exudate is centrifuged at 400 g for 10 minutes. After centrifugation, the lavaged fluid is removed and the cell pellet is resuspended in HBSS containing Ca^++ and Mg^++ and 10 mM L-cysteine at a concentration of 2×10^7 cells/ml. To 1 ml portions of cell suspension, test drugs or vehicle are added and incubated at 37° C. for 10 minutes. Following this preincubation, the calcium ionophore (10 μM), A23187, is added together with 0.5 μCi [^14 C] arachidonic acid and further incubated for 10 minutes. The reaction is stopped by the addition of ice cold water (3 ml) and acidification to pH 3.5. Lipoxygenase products are then extracted twice into diethyl ether. The pooled ether extracts are evaporated to dryness under nitrogen and the residue is redissolved in a small volume of methanol and spotted on aluminum backed pre-coated thin layer chromatographic plates. The samples are then co-chromatographed with authentic reference 5,12-diHETE in the solvent system-hexane:ether:acetic acid (50:50:3). After chromatography, the areas associated with 5,12-diHETE standard are identified by autoradiography, cut out and quantitated by liquid scintillation.
The procedure of Example 17 is also employed for the determination of the ability of the compounds of the invention to inhibit the synthesis of the arachidonic acid cyclooxygenase oxidation product TxB2.
In this assay, the procedure of Example 17 is carried out as described. However, in order to determine cyclooxygenase activity, the samples are cochromatographed with authentic reference TxB2 in the solvent system ethyl acetate:formic acid (80:1) and the upper phase of ethyl acetate:isoctane:acetic acid:water (110:50:20:100). After chromatography, the areas associated with TxB2 standard are identified by autoradiography, cut out and quantitated by liquid scintillation techniques.
The results are calculated as in Example 12 and presented below: […]

The test system of assay [5] is 5,12-diHETE synthesis by rat glycogen-elicited polymorphonuclear leukocytes. Put plainly: Inhibition of 5,12-diHETE synthesis by rat glycogen-elicited polymorphonuclear leukocytes. Format: cell-based. Conditions: Leukocyte, 10 μM, rat PMN. How it is done: This is especially true with respect to 5,12-diHETE, which is also denoted as LTB4 [see Ford-Hitchinson, J. Roy. Soc. Med., 74, 831 (1981)]. The assay of this Example measures the ability of the compounds of the invention to inhibit the synthesis of 5,12-diHETE by rat glycogen-elicited polymorphonuclear leukocytes.
as §1
Results are expressed as the 50% Inhibitory concentration, or as percent inhibition at a given.

[6] abbreviates: antagonist concentration 1 × 10^-6 M.
Setting [7] is: antagonist concentration 1 × 10^-5 M.

As to `O=S(=O)(Nc1cccc(OCc2csc(-c3ccccc3F)n2)c1)C(F)(F)F` [Example 9C, 1,1,1-Trifluoro-N-[3-[[2-(2-fluorophenyl)-4-thiazolyl]methoxy]phenyl]methanesulfonamide], the inhibition in vivo at 50 mg/kg in assay [1] turned out to be 53%. The same compound showed an inhibition in vivo at 25 mg/kg in assay [2] (intraduodenal, intraduodenally) of 73%. The compound also displayed an inhibition in vivo at 10 mg/kg in assay [2] (po, intragastrically) of 89%.
As to `COc1ccc2c(c1)c(CC(=O)O)c(C)n2C(=O)c1ccc(Cl)cc1` [Indomethacin, reference compound], the ED50 in assay [1] (3 h, read-out: Oral ED50 (95% C.L.)) worked out at 3.7 mg/kg.
`O=S(=O)(Nc1cccc(OCc2csc(-c3cccc(C(F)(F)F)c3)n2)c1)C(F)(F)F` [Example 9F, 1,1,1-Trifluoro-N-[3-[[2-(3-trifluoromethylphenyl)-4-thiazolyl]methoxy]phenyl]methanesulfonamide] came in with an inhibition in vivo at 50 mg/kg in assay [1] of 23%. In assay [2] (intraduodenal, intraduodenally), this compound returned an inhibition in vivo at 25 mg/kg of 50%.
Turning to `CN(C)C(=O)CCSC(SCCC(=O)N(C)C)c1cccc(OCc2csc(-c3ccccc3)n2)c1` [Example 14, 3,3'-[[[3-[(2-Phenyl-4-thiazolyl)methoxy]phenyl]methylene]dithio]bis[N,N-dimethylpropanamide]], the Kb in assay [3] (setting [6]) was 0.324 µM.
As for `COC(=O)CCSC(SCCC(=O)OC)c1cccc(OCc2csc(-c3ccccc3)n2)c1` [Example 12], the Kb in assay [3] (setting [7]) is 0.724 µM.
In the case of `O=S(=O)(Nc1cccc(OCc2csc(Cc3ccccc3)n2)c1)C(F)(F)F` [Example 9I, 1,1,1-Trifluoro-N-[3-[[2-(benzyl)-4-thiazolyl]methoxy]phenyl]methanesulfonamide], the inhibition in vivo at 50 mg/kg in assay [1] is 22%. In addition, the inhibition in vivo at 25 mg/kg in assay [2] (intraduodenal, intraduodenally) came out at 94%; in assay [2] (po, intragastrically), 47%.
As to `COC(=O)CCSC(SCCC(=O)N(C)C)c1cccc(OCc2csc(-c3ccccc3)n2)c1` (stereo not shown) [Example 13, 3-[[[[3-(Dimethylamino)-3-oxopropyl]thio][[(2-phenyl-4-thiazolyl)methoxy]phenyl]methyl]thio]propanoic acid methyl ester], the Kb in assay [3] (setting [6]) is 0.0447 µM.
In turn, `O=S(=O)(Nc1cccc(OCc2csc(-c3ccc(F)cc3)n2)c1)C(F)(F)F` [Example 9B, 1,1,1-Trifluoro-N-[3-[[2-(4-fluorophenyl)-4-thiazolyl]methoxy]phenyl]methanesulfonamide] came in with an inhibition in vivo at 50 mg/kg in assay [1] of 55%. Moreover, at 25 mg/kg the inhibition in vivo in assay [2] (intraduodenal, intraduodenally) was 100%. 10 mg/kg produced 92% inhibition in vivo in assay [2] (po, intragastrically). For the same compound, the figures for the inhibition at 10 µM in assay [4] and in assay [5] were 32% and 64%, respectively.
Take `O=C(O)CCSC(SCCC(=O)O)c1cccc(OCc2csc(-c3ccccc3)n2)c1` [Example 15, 3,3'-[[3-[(2-Phenyl-4-thiazolyl)methoxy]phenyl]methylene]dithiobis[propanoic acid]]: the Kb in assay [3] (setting [7]) is 0.912 µM.
In the case of `CCN(CC)C(=O)N(C)CC(O)c1cccc(OCc2csc(-c3ccccc3)n2)c1` (stereo not shown) [Example 6, N,N-Diethyl-N'-[2-hydroxy-2-[3-(2-phenyl-4-thiazolylmethoxy)phenyl]ethyl]-N-methylurea], the inhibition in vivo at 50 mg/kg in assay [1] is 57%. In addition, the inhibition in vivo at 25 mg/kg in assay [2] (intraduodenal, intraduodenally) amounted to 47%.
Consider `c1ccc(-c2nc(COc3cccc(Cc4nnn[nH]4)c3)cs2)cc1` [Example 5, 5-[[3-(2-Phenyl-4-thiazolylmethoxy)phenyl]methyl]-1H-tetrazole], for which, in assay [2] (intraduodenal, intraduodenally), testing at 25 mg/kg gave an inhibition in vivo of 69%.
Regarding `COc1ccc(-c2nc(COc3cccc(NS(=O)(=O)C(F)(F)F)c3)c(C)o2)cc1` [Example 1, 1,1,1-Trifluoro-N-[3-[[2-(4-methoxyphenyl)-5-methyl-4-oxazolyl]methoxy]phenyl]methanesulfonamide], in assay [1], 50 mg/kg produced 34% inhibition in vivo. The same compound displayed an inhibition in vivo at 25 mg/kg in assay [2] (intraduodenal, intraduodenally) of 24%.
`O=S(=O)(Nc1cccc(OCc2cccc(-c3ccccc3)n2)c1)C(F)(F)F` [Example 7, 1,1,1-Trifluoro-N-[3-[(2-phenyl-6-pyridinyl)methoxy]phenyl]methanesulfonamide] showed an inhibition in vivo at 25 mg/kg in assay [2] (intraduodenal, intraduodenally) of 68%.
In the case of `CN(C)C(=O)CCSC(SCCC(=O)O)c1cccc(OCc2csc(-c3ccccc3)n2)c1` (stereo not shown) [Example 16, 3-[[[[3-(Dimethylamino)-3-oxopropyl]thio][3-[(2-phenyl-4-thiazolyl)methoxy]phenyl]methyl]thio]propanoic acid], the Kb in assay [3] (setting [6]) was 0.0724 µM.
Consider `O=S(=O)(Nc1cccc(OCc2csc(-c3ccc(C(F)(F)F)cc3)n2)c1)C(F)(F)F` [Example 9E, 1,1,1-Trifluoro-N-[3-[[2-(4-trifluoromethylphenyl)-4-thiazolyl]methoxy]phenyl]-methanesulfonamide], for which, in assay [1], 50 mg/kg produced 66% inhibition in vivo.
As to `Cc1oc(-c2ccccc2)nc1COc1cccc(NS(=O)(=O)C(F)(F)F)c1` [Example 2, 1,1,1-Trifluoro-N-[3-[(5-methyl-2-phenyl-4-oxazolyl)methoxy]phenyl]methanesulfonamide], in assay [1], the inhibition in vivo at 50 mg/kg amounted to 18%. This compound came in with an inhibition in vivo at 25 mg/kg in assay [2] (intraduodenal, intraduodenally) of 56%.
For the compound `O=S(=O)(Nc1ccccc1OCc1csc(-c2ccccc2)n1)C(F)(F)F` [Example 4, 1,1,1-Trifluoro-N-[2-[(2-phenyl-4-thiazolyl)methoxy]phenyl]methanesulfonamide], 25 mg/kg produced 10% inhibition in vivo in assay [2] (intraduodenal, intraduodenally).
Regarding `O=S(=O)(Nc1cccc(OCc2csc(-c3c(F)cccc3F)n2)c1)C(F)(F)F` [Example 9D, 1,1,1-Trifluoro-N-[3-[[2-(2,6-difluorophenyl)-4-thiazolyl]methoxy]phenyl]methanesulfonamide], in assay [1], the inhibition in vivo at 50 mg/kg was found to be 37%. This compound showed an inhibition in vivo at 25 mg/kg in assay [2] (intraduodenal, intraduodenally) of 72%.

As a reminder, the inhibition in vivo is the percentage by which the read-out fell short of the control. A lower inhibition in vivo goes with a response near the control. What is called ED50 is the dose at which the effect has come halfway, by size or by number of responders. In general, inhibition refers to the change of the read-out against control, counted positive when it falls. Low values mean a weak effect, high ones a strong effect.

For the origin of these results see patent publication US5103014A, “Certain 3,3'-[[[(2-phenyl-4-thiazolyl)methoxy]phenyl]methylene]dithiobis-propano ic acid derivatives” (American Home Products Corporation, priority 1990, dated 1992).
